Laboratory results from the supplement of paper PMC10307832.

How the values were obtained:
Assay in all cases: relative viability (nuclei count vs DMSO), 5 days (fraction); higher = more cells survive
[1] = compound: C[As](C)SC[C@H](NC(=O)CC[C@H](N)C(=O)O)C(=O)NCC(=O)O [Darinaparsin] + Cc1nc(NC(=O)N2CCC[C@H]2C(N)=O)sc1-c1ccnc(C(C)(C)C(F)(F)F)c1 [Alpelisib] (partner 2 µM)
Method in brief: (§1)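 A single step with final 0.05% Triton X-100, 1% formaldehyde and 1 ug/ml Hoechst fixed the cells and stained nuclei 5 days after treatment. Lung cancer cell lines in 1536-well plates had been treated by pin tool the day after seeding with one drug alone or a fixed anchor-drug dose plus five library-drug doses (not always all listed) in √10 steps, and nuclei were counted on 4× images. Relative viability is the ratio of nuclei in treated wells to nuclei in vehicle wells, taken as the median of duplicate plates.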

[2] = compound: CC1=C(C=C(C=C1)NC(=O)C2=CC(=CC=C2)C(C)(C)C#N)NC3=CC4=C(C=C3)N=CN(C4=O)C [AZ628] + Cc1nc(NC(=O)N2CCC[C@H]2C(N)=O)sc1-c1ccnc(C(C)(C)C(F)(F)F)c1 [Alpelisib] (partner 2 µM)
Method in brief: as §1

[3] = compound: CC1=C(C=C(C=C1)NC(=O)C2=CC(=CC=C2)C(C)(C)C#N)NC3=CC4=C(C=C3)N=CN(C4=O)C [AZ628] + C[C@@H](Oc1cc(-c2cnn(C3CCNCC3)c2)cnc1N)c1c(Cl)ccc(F)c1Cl [Crizotinib] (partner 1 µM)
Method in brief: as §1

[4] = compound: C1CC2=C(C1)C=C(C=C2)OC3=NC(=C4C(=N3)N(C=N4)CC5=CC=C(C=C5)C6=CC=CC=C6)N[C@@H](CC7=CC=CC=C7)CO [QS11] + Cc1nc(NC(=O)N2CCC[C@H]2C(N)=O)sc1-c1ccnc(C(C)(C)C(F)(F)F)c1 [Alpelisib] (partner 2 µM)
Method in brief: as §1

Cell Line | relative viability ([1]; first compound 0.08 µM) | relative viability ([1]; first compound 0.8 µM) | relative viability ([1]; first compound 2.53 µM) | relative viability ([1]; first compound 8 µM) | relative viability ([2]; first compound 0.08 µM) | relative viability ([2]; first compound 0.253 µM) | relative viability ([2]; first compound 0.8 µM) | relative viability ([2]; first compound 2.53 µM) | relative viability ([2]; first compound 8 µM) | relative viability ([3]; first compound 0.08 µM) | relative viability ([3]; first compound 0.253 µM) | relative viability ([3]; first compound 0.8 µM) | relative viability ([3]; first compound 2.53 µM) | relative viability ([3]; first compound 8 µM) | relative viability ([4]; first compound 0.08 µM) | relative viability ([4]; first compound 0.253 µM) | relative viability ([4]; first compound 0.8 µM) | relative viability ([4]; first compound 2.53 µM) | relative viability ([4]; first compound 8 µM)
SK-MES-1 | 1.01 | 0.909 | 0.63 | 0.993 | 0.821 | 0.956 | 0.823 | 0.779 | 0.674 | 0.953 | 0.93 | 1.08 | 1.15 | 0.882 | 0.997 | 0.919 | 0.918 | 0.886 | 0.849
Calu-6 | 1.14 | 0.975 | 1.02 | 0.945 | 0.937 | 0.835 | 0.416 | 0.541 | 0.171 | 0.753 | 0.678 | 0.605 | 0.577 | 0.153 | 0.98 | 0.974 | 0.856 | 0.99 | 0.884
A-427 | 1.11 | 1.05 | 1.08 | 1.12 | 1.02 | 1.06 | 0.624 | 0.635 | 0.222 | 0.641 | 0.74 | 0.69 | 0.665 | 0.251 | 1.03 | 1.16 |  | 1.06 | 1.11
NCI-H1563 | 0.903 | 0.91 | 1.01 | 0.894 | 0.982 | 0.874 | 0.858 | 0.967 | 0.893 | 0.892 | 0.825 | 0.872 | 0.833 | 0.938 | 0.902 | 0.931 | 1.02 | 0.831 | 0.749
NCI-H1355 | 0.955 | 0.8 | 0.785 | 0.92 | 0.849 | 0.742 | 0.737 | 0.685 | 0.558 | 1.04 | 1.05 | 0.971 | 0.89 | 0.768 | 0.776 | 0.748 | 0.779 | 0.689 | 0.763
NCI-H2170 | 0.927 | 0.759 | 0.629 | 1.13 | 0.931 | 0.751 | 0.809 | 0.852 | 0.98 | 1.23 | 1.19 | 1.12 | 1.15 | 1.21 | 0.785 | 0.907 | 0.833 | 0.791 | 1.16
NCI-H2023 | 0.658 | 0.601 | 0.536 | 0.603 | 0.653 | 0.558 | 0.617 | 0.688 | 0.324 | 0.638 | 0.663 | 0.622 | 0.635 | 0.478 | 0.678 | 0.597 | 0.619 | 0.747 | 0.722
NCI-H520 | 1.07 | 0.712 | 0.885 | 1.04 | 0.908 | 0.826 | 0.733 | 0.819 | 0.52 | 0.707 | 0.788 | 0.601 | 0.833 | 0.576 |  | 0.912 | 0.921 | 0.92 | 0.986
NCI-H2087 | 1.15 | 0.988 | 1.13 | 1.18 | 0.783 | 0.73 | 0.62 | 0.678 | 0.231 | 0.926 | 1.04 | 1.03 | 0.926 | 0.362 | 1.18 | 1.02 | 0.95 | 0.743 | 0.858
NCI-H596 | 0.511 | 0.621 | 0.421 | 0.602 | 0.504 | 0.553 | 0.567 | 0.498 | 0.422 | 0.903 | 1.18 | 1.08 | 1.04 | 1.16 | 0.4 | 0.494 | 0.467 | 0.468 | 0.443
NCI-H2009 | 1.25 | 1.19 | 1.06 | 1.16 | 1.01 | 0.895 | 0.692 | 1.03 | 0.34 | 0.848 | 0.722 | 0.524 | 0.703 | 0.292 | 1.18 | 1.19 | 1.12 | 0.969 | 0.999
NCI-H1993 | 0.712 | 0.681 | 0.688 | 0.678 | 0.73 | 0.61 | 0.662 | 0.631 | 0.739 | 0.933 | 0.943 | 0.873 | 0.77 | 0.729 | 0.559 | 0.643 | 0.693 | 0.699 | 0.668
COR-L23 | 1.02 | 0.707 | 0.585 | 0.893 | 0.864 | 0.732 | 0.762 | 0.808 | 0.334 | 0.619 | 0.736 | 0.666 | 0.59 | 0.365 | 0.828 | 0.665 | 0.698 | 0.589 | 0.617
NCI-H1792 | 0.684 | 0.575 | 0.493 | 1.03 | 0.788 | 0.679 | 0.522 | 0.607 | 0.425 | 1.08 | 0.916 | 0.771 | 0.881 | 0.633 |  | 0.708 | 0.539 | 0.609 | 0.785
A549 | 0.973 | 0.812 | 0.746 | 1.08 | 0.688 | 0.677 | 0.5 | 0.565 | 0.258 | 0.702 | 0.728 | 0.697 | 0.712 | 0.382 | 0.912 | 0.757 | 0.691 | 0.451 | 0.215
